The source of these data is paper PMC12444550, “Design, Synthesis, and Trypanosomicidal Evaluation of Eugenol-Based Azole Hybrids: Discovery of an In Vitro Active and Selective Compound” (ACS Omega, 2025).

The subject of data set [1] is T. cruzi Y strain trypomastigote forms. As to the kind of experiment: Anti-T. cruzi activity against trypomastigote forms. It counts as cell-based. Conditions: for EC50: read-out: Y strain T. cruzi EC50 Trypomastigote; for trypanosomicidal activity (parasite mortality): at 100 μmol·L^–1, trypomastigotes; for SI (selectivity index): mammalian cell CC50 versus trypomastigote EC50. The protocol:
(§1) The T. cruzi Y strain was selected for this study due to its known partial sensitivity to benznidazole chemotherapy.
Trypomastigote forms of T. cruzi (2.5 × 10^5 parasites/well) were incubated in 96-well plates with serial dilutions of the hybrid compounds (100, 50, 25, and 12.5 μmol·L^–1) for 24 h at 37 °C in a humidified 5% CO2 atmosphere. Following incubation, parasite viability was assessed under an optical microscope by evaluating motility, and the number of live parasites was quantified using a Neubauer chamber. Untreated parasite cultures were maintained in parallel as negative controls. The mortality percentage was calculated by comparing the number of live parasites in treated wells to that of untreated controls. All experiments were conducted in triplicate with at least two technical replicates per concentration. EC50 values were determined by nonlinear regression using GraphPad Prism 8 and CompuSyn software (Biosoft, U.K.).

In data set [2] the test system is T. cruzi Y strain amastigote forms. Put plainly: Anti-T. cruzi activity against intracellular amastigote forms in infected Vero or H9c2 cells. It counts as cell-based, Trypanosoma cruzi. The following applies: Vero or H9c2 cells infected with amastigote forms, 48 h of incubation, fixed concentration 50 μmol·L^–1. How it is done:
as §1
Vero or H9c2 cells (7.5 × 10^3 cells/well) were seeded on sterile glass coverslips placed in 24-well plates and incubated for 24 h at 37 °C in 5% CO2 to allow cell adhesion. Following this period, cells were infected with trypomastigote forms of T. cruzi Y strain at a ratio of 20 parasites per cell. After 24 h of parasite-host interaction, noninternalized parasites were removed by washing with fresh medium, and the infected monolayers were incubated for 48 h with the hybrid compounds at a fixed concentration of 50 μmol·L^–1, following toxicity parameters. Infected but untreated cells were included as negative controls in all experiments. At the end of the treatment period, coverslips were washed with medium, fixed with methanol, and stained with Giemsa solution. After drying, the coverslips were mounted onto microscope slides using Entellan (Merck) and analyzed under a light microscope at 100× magnification. At least 200 cells were counted per coverslip, and only intracellular parasite forms with characteristic morphology were considered for analysis. The infection index was determined by the percentage of infected cells relative to the total number of cells analyzed. The inhibition percentage was calculated based on the reduction in infection in treated samples compared to the untreated control. Dose–response curves were constructed using GraphPad Prism 8 and CompuSyn (Biosoft, U.K.). All experiments were performed in triplicate, with at least two technical replicates per condition.

Data set [3] in a line: Cell viability assay (resazurin), Vero cells. In kind it is cell-based. The following applies: African green monkey, Vero cells; resazurin method; 48 h incubation; read-out: Cytotoxicity CC50 Vero. The protocol:
(§2) Vero and H9c2 cells (2 × 10^3 cells/well) were seeded in 96-well plates in Dulbecco’s modified Eagle’s medium (DMEM) supplemented with 5% fetal bovine serum (FBS) and incubated for 24 h at 37 °C in a humidified atmosphere with 5% CO2. After incubation, the medium was replaced with fresh DMEM + 5% FBS containing serial dilutions of each hybrid compound (1400 to 175 μmol·L^–1). Cells were exposed to the compounds for 48 h. Four wells with untreated cells served as a positive control. Additionally, eight wells without cells were maintained as negative controls: four containing DMEM + 5% FBS + resazurin (1 mmol·L^–1), and four containing only DMEM + 5% FBS. After the 48-h incubation, the treatment medium was removed and replaced with DMEM + 5% FBS containing 10% resazurin solution (1 mmol·L^–1). Plates were incubated for an additional 6 h, and then absorbance was measured at 570 and 600 nm using a microplate reader. Dose–response curves were constructed using GraphPad Prism 8 software, and CC50 values were determined by nonlinear regression.

Data set [4] can be described thus: Cell viability assay (resazurin), H9c2 cells. It counts as cell-based. The following applies: rat, resazurin method, 48 h incubation, read-out: Cytotoxicity CC50 H9c2. How it is done: as §2
Background: Resazurin is reduced to fluorescent resorufin, in cell work by metabolically active cells.

The next data set concerns Vero cells. Put plainly: Cell viability assay (resazurin), Vero cells. In kind it is cell-based. Conditions: 48 h; 1400 to 175 μmol·L^–1. How it is done: as §2
Setting [5] is: Trypanosoma cruzi, 24 h, 24 h of incubation, Y strain.

Read-outs that look alike come from different tables or passages of the source. A value given as a limit tells only on which side of the number the result lay.

The EC50 is the concentration needed to bring the measured effect to its halfway point. As usually defined, the CC50 is the concentration giving 50% cytotoxicity. For `COc1cc(CC(O)Cn2cncn2)cc([N+](=O)[O-])c1OC` (racemic) [Compound 21, (±)-1-(3,4-Dimethoxy-5-nitrophenyl)-3-(1H-1,2,4-triazol-1-yl)propan-2-ol], the EC50 in data set [1] (setting [5]) was over 100 µM; in data set [2] (Trypanosoma cruzi), over 50 µM. Also, the CC50 at 48 h in data set [3] and in data set [4] was over 1300 µM each time.
For `COc1cc(CC(O)Cn2ccnn2)ccc1O` (racemic) [Compound 30, (±)-4-(2-Hydroxy-3-(1H-1,2,3-triazol-1-yl)propyl)-2-methoxyphenol], the half-maximal effective concentration (EC50) in data set [1] (setting [5]) was over 100 µM; in data set [2] (Trypanosoma cruzi), over 50 µM. The CC50 at 48 h in data set [3] and in data set [4] was over 1300 µM each time.
As to `COc1cc(CC(O)Cn2cncn2)cc([N+](=O)[O-])c1OCc1ccccc1` (racemic) [Compound 23, (±)-1-(4-(Benzyloxy)-3-methoxy-5-nitrophenyl)-3-(1H-1,2,4-triazol-1-yl)propan-2-ol], the EC50 in data set [1] (setting [5]) was over 100 µM; in data set [2] (Trypanosoma cruzi), over 50 µM. Besides, the “activity against trypomastigote forms (in words)” value in data set [1] (Y strain, up to 100 μmol·L^–1) was “inactive”. Moreover, the CC50 at 48 h in data set [3] and in data set [4] was over 1300 µM each time.
As to `COc1ccc(CC(O)Cn2cncn2)cc1OC` (racemic) [Compound 20, (±)-1-(3,4-Dimethoxyphenyl)-3-(1H-1,2,4-triazol-1-yl)propan-2-ol], the EC50 is over 100 µM in data set [1] (setting [5]) and over 50 µM in data set [2] (Trypanosoma cruzi). Also, the “cytotoxicity toward Vero cells (in words)” value in the data set with Vero cells is reported as “significantly higher cytotoxicity”. Also, the values for the CC50 at 48 h in data set [3] and in data set [4] were over 1400 µM and over 1300 µM, respectively.
Consider `COc1cc(CC(O)Cn2cncn2)ccc1OCc1ccccc1` (racemic) [Compound 22, (±)-1-(4-(Benzyloxy)-3-methoxyphenyl)-3-(1H-1,2,4-triazol-1-yl)propan-2-ol], for which the figures for the EC50 in data set [1] (setting [5]) and in data set [2] (Trypanosoma cruzi) were over 100 µM and over 50 µM, respectively. Moreover, the CC50 at 48 h in data set [3] and in data set [4] was over 1300 µM in each case.
For `C=CCc1ccc(O)c(OC)c1` [Eug, eugenol], the concentration giving a half-maximal response (EC50) in data set [1] (Trypanosoma cruzi, 24 h) came to 500 µM.
In the case of `COc1cc(CC(O)Cn2ccnc2)cc([N+](=O)[O-])c1O` (racemic) [Compound 25, (±)-4-(2-Hydroxy-3-(1H-imidazol-1-yl)propyl)-2-methoxy-6-nitrophenol], the EC50 in data set [1] (setting [5]) was over 100 µM; in data set [2] (Trypanosoma cruzi) it was over 50 µM. The “cytotoxicity toward Vero cells (in words)” value in the data set on Vero cells is recorded as “significantly higher cytotoxicity”. Further, the CC50 at 48 h is 860 µM in data set [3] and over 1300 µM in data set [4].
Regarding `COc1ccc(CC(O)Cn2ccnc2)cc1OC` (racemic) [Compound 26, (±)-1-(3,4-Dimethoxyphenyl)-3-(1H-imidazol-1-yl)propan-2-ol], the EC50 in data set [1] (setting [5]) was over 100 µM; in data set [2] (Trypanosoma cruzi), over 50 µM. In addition, the half-maximal cytotoxic concentration (CC50) at 48 h in data set [3] and in data set [4] was over 1300 µM throughout.
As for `COc1cc(CC(O)Cn2ccnc2)cc([N+](=O)[O-])c1OCc1ccccc1` (racemic) [Compound 29, (±)-1-(4-(Benzyloxy)-3-methoxy-5-nitrophenyl)-3-(1H-imidazol-1-yl)propan-2-ol], the EC50 is 26.5 µM in data set [1] (24 h of incubation, Y strain) and over 50 µM in data set [2] (Trypanosoma cruzi). Besides, the “trypanosomicidal activity (parasite mortality)” value in data set [1] (24 h) is listed as “approximately 99%”. In data set [1], the “SI (selectivity index)” value was over 49. The CC50 at 48 h in data set [3] and in data set [4] was over 1300 µM throughout.
Take `COc1cc(CC(O)Cn2ccnc2)ccc1O` (racemic) [Compound 24, (±)-4-(2-Hydroxy-3-(1H-imidazol-1-yl)propyl)-2-methoxyphenol]: the EC50 was over 100 µM in data set [1] (setting [5]) and over 50 µM in data set [2] (Trypanosoma cruzi). Moreover, the half-maximal cytotoxic concentration (CC50) at 48 h in data set [3] and in data set [4] was over 1300 µM each time.
In the case of `COc1cc(CC(O)Cn2cncn2)cc([N+](=O)[O-])c1O` (racemic) [Compound 19, (±)-4-(2-Hydroxy-3-(1H-1,2,4-triazol-1-yl)propyl)-2-methoxy-6-nitrophenol], the EC50 is over 100 µM in data set [1] (setting [5]) and over 50 µM in data set [2] (Trypanosoma cruzi). Besides, the CC50 at 48 h in data set [3] and in data set [4] was over 1300 µM throughout.
For the molecule `COc1cc(CC(O)Cn2cncn2)ccc1O` (racemic) [Compound 18, (±)-4-(2-Hydroxy-3-(1H-1,2,4-triazol-1-yl)propyl)-2-methoxyphenol], the values for the half-maximal effective concentration (EC50) in data set [1] (setting [5]) and in data set [2] (Trypanosoma cruzi) were over 100 µM and over 50 µM, respectively. Also, the CC50 at 48 h in data set [3] and in data set [4] was over 1300 µM each time.
Turning to `COc1cc(CC(O)Cn2ccnc2)cc([N+](=O)[O-])c1OC` (racemic) [Compound 27, (±)-1-(3,4-Dimethoxy-5-nitrophenyl)-3-(1H-imidazol-1-yl)propan-2-ol], the EC50 in data set [1] (setting [5]) was over 100 µM; in data set [2] (Trypanosoma cruzi), over 50 µM. For the same molecule, the cytotoxic concentration (CC50) at 48 h in data set [3] and in data set [4] was over 1300 µM in each case.
As to `COc1ccc(CC(O)Cn2ccnn2)cc1OC` (racemic) [Compound 32, (±)-1-(3,4-Dimethoxyphenyl)-3-(1H-1,2,3-triazol-1-yl)propan-2-ol], the EC50 in data set [1] (setting [5]) was over 100 µM; in data set [2] (Trypanosoma cruzi) it was over 50 µM. Besides, the CC50 at 48 h in data set [3] and in data set [4] was over 1300 µM in each case.
For the molecule `COc1cc(CC(O)Cn2ccnc2)ccc1OCc1ccccc1` (racemic) [Compound 28, (±)-1-(4-(Benzyloxy)-3-methoxyphenyl)-3-(1H-imidazol-1-yl)propan-2-ol], the values for the EC50 in data set [1] (setting [5]) and in data set [2] (Trypanosoma cruzi) were over 100 µM and over 50 µM, respectively. For the same molecule, the CC50 at 48 h in data set [3] and in data set [4] was over 1300 µM each time.
For `COc1cc(CC(O)Cn2ccnc2)cc([N+](=O)[O-])c1OCc1ccccc1` (single isomer, unassigned; (-)) [(-)-29], the EC50 in data set [1] (24 h of incubation, Y strain, listed as (−)-29) is about 29 µM; in data set [1] (24 h of incubation, Y strain), 29.9 µM; in data set [2] it was over 50 µM. The “trypanosomicidal activity (parasite mortality)” value in data set [1] (24 h) was “approximately 99%”.
`COc1cc(CC(O)Cn2ccnn2)cc([N+](=O)[O-])c1OC` (racemic) [Compound 33, (±)-1-(3,4-Dimethoxy-5-nitrophenyl)-3-(1H-1,2,3-triazol-1-yl)propan-2-ol]: the EC50 in data set [1] (setting [5]) is over 100 µM; in data set [2] (Trypanosoma cruzi), over 50 µM. In the data set with Vero cells, the “cytotoxicity toward Vero cells (in words)” value was “significantly higher cytotoxicity”. In addition, the CC50 at 48 h in data set [3] was 1190 µM; in data set [4] it was over 1300 µM.
As to `COc1cc(CC(O)Cn2ccnn2)cc([N+](=O)[O-])c1O` (racemic) [Compound 31, (±)-4-(2-Hydroxy-3-(1H-1,2,3-triazol-1-yl)propyl)-2-methoxy-6-nitrophenol], the 50% effective concentration (EC50) was over 100 µM in data set [1] (setting [5]) and over 50 µM in data set [2] (Trypanosoma cruzi). In addition, the CC50 at 48 h in data set [3] and in data set [4] was over 1300 µM throughout.
What is called mortality is the share of the test organisms that died. With `COc1cc(CC(O)Cn2ccnc2)cc([N+](=O)[O-])c1OCc1ccccc1` (single isomer, unassigned; (+)) [(+)-29], the EC50 in data set [1] (24 h of incubation, Y strain) was 28.8 µM; in data set [1] (setting [5]) it was about 29 µM; in data set [2], over 50 µM. Besides, the mortality at 100 µM in data set [1] (Trypanosoma cruzi, 24 h, read-out: trypanosomicidal activity (parasite mortality)) is about 99%.
For the molecule `COc1cc(CC(O)Cn2ccnn2)cc([N+](=O)[O-])c1OCc1ccccc1` (racemic) [Compound 34, (±)-1-(4-(Benzyloxy)-3-methoxy-5-nitrophenyl)-3-(1H-1,2,3-triazol-1-yl)propan-2-ol], the EC50 in data set [1] (setting [5]) was 38.1 µM; in data set [2] (Trypanosoma cruzi) it was over 50 µM. Besides, in data set [1], the “SI (selectivity index)” value is reported as over 34. For the same molecule, the CC50 at 48 h in data set [3] and in data set [4] was over 1300 µM in each case.
